Experimental data: PubChem BioAssay AID1919004 (Molecular Pharmacology Branch, DTP, NCI, 2023)

Test system: 883617-216-R-J1-PDC complex spheroids, growth, % test/control
Assay: Anticancer human tumor 883617-216-R-J1-PDC patient-derived bladder carcinoma cell line growth inhibition [AhR]
Conditions: for IC50: curve of first compound; for viability, T/C: stronger effect = lower value
In short: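 Complex tumor spheroids co-cultured with HUVEC and human MSC stroma; AhR antagonists tested in combination with standard-of-care and investigational agents. Top concentration at or near clinical Cmax (else 10 microM), half-log dilutions; growth expressed as percent test/control.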

[1] = second compound 0.1 µM, first compound 0.000949 µM
[2] = second compound 0.1 µM, first compound 0.003 µM
[3] = second compound 0.1 µM, first compound 0.00949 µM
[4] = second compound 0.1 µM, first compound 0.03 µM
[5] = second compound 0.1 µM, first compound 0.0949 µM
[6] = second compound 0.1 µM, first compound 0.3 µM
[7] = second compound 0.316 µM, first compound 0.000949 µM
[8] = second compound 0.316 µM, first compound 0.003 µM
[9] = second compound 0.316 µM, first compound 0.00949 µM
[10] = second compound 0.316 µM, first compound 0.03 µM
[11] = second compound 0.316 µM, first compound 0.0949 µM
[12] = second compound 0.316 µM, first compound 0.3 µM
[13] = second compound 1 µM, first compound 0.000949 µM
[14] = second compound 1 µM, first compound 0.003 µM
[15] = second compound 1 µM, first compound 0.00949 µM
[16] = second compound 1 µM, first compound 0.03 µM
[17] = second compound 1 µM, first compound 0.0949 µM
[18] = second compound 1 µM, first compound 0.3 µM
[19] = second compound 3.16 µM, first compound 0.000949 µM
[20] = second compound 3.16 µM, first compound 0.003 µM
[21] = second compound 3.16 µM, first compound 0.00949 µM
[22] = second compound 3.16 µM, first compound 0.03 µM
[23] = second compound 3.16 µM, first compound 0.0949 µM
[24] = second compound 3.16 µM, first compound 0.3 µM
[25] = second compound 10 µM, first compound 0.000949 µM
[26] = second compound 10 µM, first compound 0.003 µM
[27] = second compound 10 µM, first compound 0.00949 µM
[28] = second compound 10 µM, first compound 0.03 µM
[29] = second compound 10 µM, first compound 0.0949 µM
[30] = second compound 10 µM, first compound 0.3 µM
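Note: exposure lasted 7 days after dosing on day 3 of spheroid growth.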

Work on `CCc1c2c(nc3ccc(O)cc13)-c1cc3c(c(=O)n1C2)COC(=O)[C@]3(O)CC` + CC(CO)NC(=O)c1cc(-c2ccc(Cl)cc2)nn(-c2cnn(C)c2)c1=O yielded an IC50 (second compound 0.1 µM) greater than 300 nM, an IC50 (second compound 0.316 µM) greater than 300 nM and an IC50 (second compound 1 µM) greater than 300 nM. It also gave an IC50 (second compound 3.16 µM) greater than 300 nM, an IC50 (second compound 10 µM) of 300 nM and a viability, T/C [1] of 50.4%. The viability, T/C [2] was 64.7%, the viability, T/C [3] was 66.9% and the viability, T/C [4] was 39.6%. It also gave a viability, T/C [5] of 85.5%, a viability, T/C [6] of 86% and a viability, T/C [7] of 68.2%. The viability, T/C [8] was 63.3%, the viability, T/C [9] was 87.4% and the viability, T/C [10] was 47.8%. It also gave a viability, T/C [11] of 69.9%, a viability, T/C [12] of 80.7% and a viability, T/C [13] of 83.1%. It also gave a viability, T/C [14] of 88.2%, a viability, T/C [15] of 145% and a viability, T/C [16] of 64.1%. The viability, T/C [17] was 89.4%, the viability, T/C [18] was 63.9% and the viability, T/C [19] was 110%. The viability, T/C [20] was 63.3%, the viability, T/C [21] was 40.5% and the viability, T/C [22] was 77.9%. It also gave a viability, T/C [23] of 92.7%, a viability, T/C [24] of 73.8% and a viability, T/C [25] of 73.2%. It also gave a viability, T/C [26] of 61.7%, a viability, T/C [27] of 103% and a viability, T/C [28] of 87.3%. The viability, T/C [29] was 43.6% and the viability, T/C [30] was 57.4%.
`Nc1ncn(C2CC(O)C(CO)S2)c(=O)n1` (stereo not given) + Cc1ccccc1N=Nc1ccc(NC(=O)c2ccnn2C)c(C)c1 gave an IC50 (second compound 0.1 µM) greater than 300 nM, an IC50 (second compound 0.316 µM) greater than 300 nM and an IC50 (second compound 1 µM) greater than 300 nM. It also gave an IC50 (second compound 3.16 µM) greater than 300 nM, an IC50 (second compound 10 µM) greater than 300 nM and a viability, T/C [1] of 98.4%. For the same molecule, the viability, T/C [2] was 90.2%, the viability, T/C [3] was 88.8% and the viability, T/C [4] was 88.7%. For the same molecule, the viability, T/C [5] was 87.3%, the viability, T/C [6] was 75.8% and the viability, T/C [7] was 83.9%. The viability, T/C [8] was 93.8%, the viability, T/C [9] was 83.5% and the viability, T/C [10] was 81.2%. For the same molecule, the viability, T/C [11] was 84.6%, the viability, T/C [12] was 75.5% and the viability, T/C [13] was 84.3%. For the same molecule, the viability, T/C [14] was 84.2%, the viability, T/C [15] was 99.2% and the viability, T/C [16] was 80.3%. It also gave a viability, T/C [17] of 76.1%, a viability, T/C [18] of 80.7% and a viability, T/C [19] of 81.7%. The viability, T/C [20] was 87.9%, the viability, T/C [21] was 85% and the viability, T/C [22] was 73.3%. For the same molecule, the viability, T/C [23] was 86.4%, the viability, T/C [24] was 78.7% and the viability, T/C [25] was 73.8%. It also gave a viability, T/C [26] of 68.5%, a viability, T/C [27] of 76.3% and a viability, T/C [28] of 79.2%. For the same molecule, the viability, T/C [29] was 76.9% and the viability, T/C [30] was 83.4%.
Molecule `Nc1ncn(C2CC(O)C(CO)S2)c(=O)n1` (stereo not given) + Cc1cncc(-c2nc(NCCc3c[nH]c4ccccc34)c3ncn(C(C)C)c3n2)c1 has an IC50 (second compound 0.1 µM) greater than 300 nM, an IC50 (second compound 0.316 µM) greater than 300 nM and an IC50 (second compound 1 µM) greater than 300 nM. The IC50 (second compound 3.16 µM) was greater than 300 nM, the IC50 (second compound 10 µM) was greater than 300 nM and the viability, T/C [1] was 93.3%. It also gave a viability, T/C [2] of 88.9%, a viability, T/C [3] of 94.6% and a viability, T/C [4] of 89.9%. It also gave a viability, T/C [5] of 87.3%, a viability, T/C [6] of 81.9% and a viability, T/C [7] of 95%. For the same molecule, the viability, T/C [8] was 104%, the viability, T/C [9] was 103% and the viability, T/C [10] was 90.7%. It also gave a viability, T/C [11] of 91.7%, a viability, T/C [12] of 81.6% and a viability, T/C [13] of 105%. It also gave a viability, T/C [14] of 119%, a viability, T/C [15] of 106% and a viability, T/C [16] of 107%. It also gave a viability, T/C [17] of 92.4%, a viability, T/C [18] of 94.8% and a viability, T/C [19] of 82.8%. It also gave a viability, T/C [20] of 82.6%, a viability, T/C [21] of 82.4% and a viability, T/C [22] of 88.2%. It also gave a viability, T/C [23] of 76.7%, a viability, T/C [24] of 83.1% and a viability, T/C [25] of 54.5%. For the same molecule, the viability, T/C [26] was 62.4%, the viability, T/C [27] was 59% and the viability, T/C [28] was 57.3%. The viability, T/C [29] was 46.4% and the viability, T/C [30] was 61.5%.
`CC1COCCN1c1cc(-c2ccnn2C)c2ccnc(-c3ccn[nH]3)c2n1` (stereo not given) + Cc1ccccc1N=Nc1ccc(NC(=O)c2ccnn2C)c(C)c1 showed an IC50 (second compound 0.1 µM) of 906 nM, an IC50 (second compound 0.316 µM) greater than 1000 nM and an IC50 (second compound 1 µM) of 813 nM. It also gave an IC50 (second compound 3.16 µM) of 491 nM, an IC50 (second compound 10 µM) of 624 nM and a viability, T/C (second compound 0.1 µM, first compound 0.00316 µM) of 98%. The viability, T/C (second compound 0.1 µM, first compound 0.01 µM) was 96.6%, the viability, T/C (second compound 0.1 µM, first compound 0.0316 µM) was 76.7% and the viability, T/C (second compound 0.1 µM, first compound 0.1 µM) was 74.6%. It also gave a viability, T/C (second compound 0.1 µM, first compound 0.316 µM) of 58.6%, a viability, T/C (second compound 0.1 µM, first compound 1 µM) of 49.1% and a viability, T/C (second compound 0.316 µM, first compound 0.00316 µM) of 97.7%. For the same molecule, the viability, T/C (second compound 0.316 µM, first compound 0.01 µM) was 83.3%, the viability, T/C (second compound 0.316 µM, first compound 0.0316 µM) was 85.9% and the viability, T/C (second compound 0.316 µM, first compound 0.1 µM) was 69.6%. The viability, T/C (second compound 0.316 µM, first compound 0.316 µM) was 55.7%, the viability, T/C (second compound 0.316 µM, first compound 1 µM) was 51.4% and the viability, T/C (second compound 1 µM, first compound 0.00316 µM) was 84.4%. The viability, T/C (second compound 1 µM, first compound 0.01 µM) was 88.8%, the viability, T/C (second compound 1 µM, first compound 0.0316 µM) was 70.3% and the viability, T/C (second compound 1 µM, first compound 0.1 µM) was 67.7%. For the same molecule, the viability, T/C (second compound 1 µM, first compound 0.316 µM) was 56%, the viability, T/C (second compound 1 µM, first compound 1 µM) was 48.4% and the viability, T/C (second compound 3.16 µM, first compound 0.00316 µM) was 86.5%. For the same molecule, the viability, T/C (second compound 3.16 µM, first compound 0.01 µM) was 81.2%, the viability, T/C (second compound 3.16 µM, first compound 0.0316 µM) was 71.2% and the viability, T/C (second compound 3.16 µM, first compound 0.1 µM) was 71.2%. For the same molecule, the viability, T/C (second compound 3.16 µM, first compound 0.316 µM) was 49.8%, the viability, T/C (second compound 3.16 µM, first compound 1 µM) was 44.3% and the viability, T/C (second compound 10 µM, first compound 0.00316 µM) was 77.9%. It also gave a viability, T/C (second compound 10 µM, first compound 0.01 µM) of 79.7%, a viability, T/C (second compound 10 µM, first compound 0.0316 µM) of 66.6% and a viability, T/C (second compound 10 µM, first compound 0.1 µM) of 61.7%. It also gave a viability, T/C (second compound 10 µM, first compound 0.316 µM) of 52.4% and a viability, T/C (second compound 10 µM, first compound 1 µM) of 48.1%.
